Reference: PubChem BioAssay (NCI)
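Protocol summary: plate cells (96-well), add compound at 5 concentrations, incubate 48 h, interpolate endpoints linearly. GI50 = concentration required for 50% inhibition of growth. The concentration for full growth arrest is given as TGI.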

Experiments:
Test in all cases: growth of human tumour cells (NCI), 48 h
786-0 renal = test system: 786-0 renal
DU-145 prostate = test system: DU-145 prostate
RPMI-8226 leukemia = test system: RPMI-8226 leukemia
SW-620 colon = test system: SW-620 colon
COLO 205 colon = test system: COLO 205 colon
HS 578T breast = test system: HS 578T breast
BT-549 breast = test system: BT-549 breast
HOP-92 NSCLC = test system: HOP-92 NSCLC

SMILES	GI50 (786-0 renal)	TGI (786-0 renal)	GI50 (DU-145 prostate)	TGI (DU-145 prostate)	GI50 (RPMI-8226 leukemia)	GI50 (SW-620 colon)	TGI (SW-620 colon)	GI50 (COLO 205 colon)	TGI (COLO 205 colon)	GI50 (HS 578T breast)	TGI (HS 578T breast)	GI50 (BT-549 breast)	TGI (BT-549 breast)	GI50 (HOP-92 NSCLC)	TGI (HOP-92 NSCLC)	TGI (RPMI-8226 leukemia)
COc1cc(C2C3=C(COC3=O)N(CCO)c3cc4c(cc32)OCCO4)cc(OC)c1OC (stereo unspecified)	0.369 µM	> 50 µM	0.345 µM	0.943 µM	0.149 µM	0.226 µM	> 50 µM	0.15 µM	0.409 µM	0.164 µM	35.5 µM	0.32 µM	> 11.8 µM	0.111 µM	> 50 µM	
N#CC1=C(N)Oc2c(ccc3ccccc23)C1c1cc(=O)oc2ccc(Cl)cc12 (stereo unspecified)	0.646 µM	> 100 µM	4.11 µM	> 100 µM	1.68 µM	0.411 µM	> 100 µM	1.95 µM	8.27 µM	0.656 µM	47.2 µM	1.3 µM	61.8 µM	0.556 µM	42 µM	20 µM
CC/C(Cc1ccccc1)=C(\c1ccc(OCCN2CCCC2)cc1)c1ccc(OC(=O)NCc2ccccc2)cc1	1.64 µM	3 µM	2.14 µM	4.7 µM	2.25 µM	1.93 µM	3.77 µM	2.11 µM	4.28 µM	1.97 µM	4.32 µM	1.79 µM	3.47 µM	1.58 µM	3.19 µM	4.95 µM
ClCc1ccccc1Cn1cnc2ncnc(Cl)c21	4.02 µM	12.8 µM	2.93 µM	10.1 µM	2.09 µM	2.24 µM	4.72 µM	4.33 µM	> 100 µM	2.29 µM	5.96 µM	2.45 µM	6.09 µM	4.38 µM	12.8 µM	5.45 µM
Nc1nc2c(C(=O)NCc3cccs3)nnn2c2cccc(Cl)c12		> 100 µM		> 100 µM			> 100 µM		> 100 µM		> 100 µM		> 100 µM		> 100 µM	> 100 µM
C#Cc1cccc(Nc2nc(Cl)nc3cc(NC(=O)CCl)ccc23)c1	0.449 µM	0.949 µM	0.806 µM	2.8 µM	0.895 µM	0.51 µM	1.21 µM	0.586 µM	1.35 µM	1.43 µM	9.17 µM	0.531 µM	2.57 µM	1.23 µM	2.86 µM	4.61 µM
CN=C1C=CC(=C(c2ccc(N(C)C)cc2)c2ccc(N(C)C)cc2)C=C1	0.292 µM	1.18 µM	0.274 µM	1.71 µM	0.0543 µM	0.185 µM	1.35 µM	0.184 µM	0.524 µM	0.233 µM	3.02 µM	0.265 µM	1.28 µM	0.205 µM	0.633 µM	0.255 µM
C=C1C(O)C2CC(C)(CO)C(=O)C2=C(CC(C)C)C12CC2 (stereo unspecified)	> 100 µM	> 100 µM	86.4 µM	> 100 µM	29.1 µM	62.3 µM	> 100 µM	> 100 µM	> 100 µM	> 100 µM	> 100 µM	> 100 µM	> 100 µM	94.6 µM	> 100 µM	> 100 µM
O=C(Nc1ccccc1I(=O)=O)C1CCCCC1	> 100 µM	> 100 µM	> 100 µM	> 100 µM	> 100 µM	> 100 µM	> 100 µM	> 100 µM	> 100 µM	> 100 µM	> 100 µM	> 100 µM	> 100 µM	> 100 µM	> 100 µM	> 100 µM
CN1Cc2ccccc2/C=C\c2ccccc21		> 100 µM		> 100 µM			> 100 µM		> 100 µM		> 100 µM		> 100 µM		98.7 µM	68.7 µM
COC(=O)c1c(-c2cccs2)oc(-c2cccs2)c1C(=O)OC	18 µM	49.8 µM	> 100 µM	> 100 µM	13.1 µM	31 µM	> 100 µM	26.7 µM	> 86.3 µM	35.8 µM	> 100 µM	52 µM	> 100 µM	31.9 µM	> 100 µM	92.7 µM
COc1ccc(-c2cncn2-c2cc(OC)c(OC)c(OC)c2)cc1	0.115 µM	43.7 µM	0.151 µM	9.92 µM	0.451 µM	0.0585 µM	> 100 µM	0.103 µM	9.7 µM	0.123 µM	> 6.68 µM	0.249 µM	52 µM	3.3 µM	> 61 µM	3.29 µM
CS(=O)(=O)c1ccc(Nc2nc(N[C@H]3CCCC[C@H]3N)nc3cc[nH]c(=O)c23)cc1	3.28 µM	20.6 µM	2.03 µM	10.4 µM	4 µM	0.627 µM	8.6 µM	0.865 µM	2.35 µM	1.25 µM	4.95 µM	1.63 µM	5.51 µM	2.04 µM	23.6 µM	32.8 µM
COc1ccc(-c2nc(-c3nc4ccc(C)cc4[nH]3)cc3c2[nH]c2ccccc23)cc1	19.3 µM	> 100 µM	5.02 µM	> 100 µM	1.85 µM	6.23 µM	> 100 µM	2.83 µM	8.21 µM	4.94 µM	> 100 µM	6.88 µM	> 100 µM	2.17 µM	8.11 µM	5.31 µM
Cc1c(C#N)cccc1[C@@H](C)Nc1nnc(C)c2cnc(N3CCOCC3)cc12	13.7 µM	> 100 µM	27.7 µM	> 100 µM	25.8 µM	18.9 µM	> 100 µM	22.4 µM	60.8 µM	12.2 µM	66.6 µM	13.1 µM	48.2 µM	0.175 µM	13.1 µM	> 100 µM
COc1cccc2cc(N(C)c3nc(C)nc4c3CCC4)ccc12	< 0.01 µM	14.4 µM	< 0.01 µM	12 µM	< 0.01 µM	< 0.01 µM	18.6 µM	< 0.01 µM	< 0.01 µM	< 0.01 µM	30 µM	< 0.01 µM	11 µM	< 0.0169 µM	1.48 µM	18.5 µM

SMILES	GI50 (786-0 renal)	TGI (786-0 renal)	GI50 (DU-145 prostate)	TGI (DU-145 prostate)	GI50 (RPMI-8226 leukemia)	GI50 (SW-620 colon)	TGI (SW-620 colon)	GI50 (COLO 205 colon)	TGI (COLO 205 colon)	GI50 (HS 578T breast)	TGI (HS 578T breast)	GI50 (BT-549 breast)	TGI (BT-549 breast)	GI50 (HOP-92 NSCLC)	TGI (HOP-92 NSCLC)	TGI (RPMI-8226 leukemia)
O=C(NCC(F)(F)F)Nc1cccc(-c2cnc3cc(-c4ccc(F)cc4)ccn23)c1	2.26 µM	> 100 µM	3.91 µM	> 100 µM	1.29 µM	0.515 µM	36.8 µM	0.531 µM	> 26.7 µM	0.733 µM	> 100 µM	1.31 µM	> 61 µM	2.15 µM	> 100 µM	17.9 µM
O=C(O)/C(Cc1ccnc2ccccc12)=N\O		> 100 µM		> 100 µM			> 100 µM		> 100 µM		> 100 µM		> 100 µM		> 100 µM	> 100 µM
Cc1cc(C)c(C#N)c(Sc2nc(C)c([N+](=O)[O-])c(C)c2C#N)n1	5.04 µM	17.9 µM	2.95 µM	11.1 µM	2.84 µM	2.07 µM	4.65 µM	2.58 µM	5.55 µM	2.44 µM	8.51 µM	2.66 µM	7.5 µM	2.68 µM	7.88 µM	8.16 µM
COc1ccccc1S(=O)(=O)Nc1ccc2c3c(cc(CCC(=O)NCCCCNc4cccc5c4C(=O)N(C4CCC(=O)NC4=O)C5=O)cc13)C(=O)N2C (stereo unspecified)	2.18 µM	> 100 µM	5.68 µM	> 100 µM	0.625 µM	0.24 µM	> 100 µM	0.459 µM	8.08 µM	0.186 µM	1.1 µM	0.0874 µM	1.56 µM	0.0318 µM	0.515 µM	> 100 µM
COc1ccc(C(=O)c2cc(C)c(OC)c(C)c2)c(OC)c1NC(C)=O	0.0562 µM	> 100 µM	0.0483 µM	> 100 µM	0.785 µM	0.19 µM	> 100 µM	0.299 µM	1.28 µM	0.0715 µM	> 100 µM	0.258 µM	> 100 µM	1.02 µM	> 100 µM	> 100 µM
CCCCCCCCCCCCC(O)c1ccco1 (stereo unspecified)	19.7 µM	36.6 µM	19.3 µM	35.1 µM	21 µM	16.7 µM	32 µM	36.6 µM	> 100 µM	16.2 µM	35.7 µM	20.1 µM	40.8 µM	15.5 µM	32.1 µM	49.2 µM
CC(C)N(Cc1ccc(CN(C(=O)CCl)C(C)C)cc1)C(=O)CCl	0.351 µM	1.3 µM	3.23 µM	12.4 µM	2.06 µM	1.45 µM	4.22 µM	2.16 µM	4.36 µM	2.75 µM	16.8 µM	1.87 µM	4.16 µM	1.83 µM	3.56 µM	5.13 µM
COC(=O)Nc1nc2ccccc2[nH]1		> 100 µM		> 87 µM			> 100 µM		> 100 µM		> 95.4 µM		> 100 µM		> 100 µM	> 100 µM
O=C1/C(=C/c2ccc(F)cc2)CN(C(=O)CCN2CCC(=NO)CC2)C/C1=C\c1ccc(F)cc1	1.48 µM	3.45 µM	2.26 µM	5.17 µM	0.707 µM	0.375 µM	1.07 µM	1.94 µM	5.5 µM	1.71 µM	6.51 µM	1.58 µM	3.21 µM	3.21 µM	7.39 µM	2.13 µM
CSc1nc2nc3c(nc2c(=O)n1C)C(=O)c1ccccc1C3=O	0.402 µM	1.46 µM	0.216 µM	0.623 µM	0.255 µM	0.252 µM	0.738 µM	0.173 µM	0.357 µM	0.226 µM	0.678 µM	0.159 µM	0.305 µM	0.476 µM	2.59 µM	1.02 µM
CCN(CC)CCCC(C)Nc1cc(-c2cccc(OC(F)(F)F)c2)nc2ccc(N3CCCC3)cc12 (stereo unspecified)	0.158 µM	26.1 µM	0.0782 µM	13.6 µM	0.0788 µM	0.0433 µM	> 100 µM	0.213 µM	1.51 µM	0.0337 µM	3.22 µM	0.201 µM	3.39 µM	0.582 µM	13.4 µM	13.1 µM
NC(=O)c1ccc(Oc2nccc(-c3c(-c4ccc(F)cc4)ncn3C3CCNCC3)n2)cc1	> 25 µM	> 25 µM	> 25 µM	> 25 µM	> 25 µM	> 25 µM	> 25 µM	> 25 µM	> 25 µM	> 9.72 µM	> 25 µM	> 25 µM	> 25 µM	> 25 µM	> 25 µM	> 25 µM
O=C(O)/C(Cc1cn[nH]n1)=N\O		> 100 µM		> 100 µM			> 100 µM		> 100 µM		> 100 µM		> 100 µM		> 100 µM	> 100 µM
C#C[C@@]1(O)[C@@H](CO)O[C@@H](n2cc(I)c3c(N)ncnc32)[C@@H]1O	0.334 µM	3.24 µM	0.127 µM	> 100 µM	0.343 µM	0.0581 µM	> 100 µM	0.0874 µM	0.706 µM	0.785 µM	7.83 µM	0.259 µM	4.01 µM	0.0736 µM	2.22 µM	5.51 µM
O=C(CN(/C=C/C(=O)C(F)(F)F)c1ccc(Cl)cc1)c1ccc(Cl)c(Cl)c1	11.5 µM	24.5 µM	16.7 µM	33.4 µM	3.74 µM	13.2 µM	30.5 µM	14.2 µM	39.4 µM	16.6 µM	38.3 µM	16.7 µM	33.3 µM	3.21 µM	14.5 µM	17 µM
O=C(NCCCc1cn[nH]c1)c1ccc(-c2ccncc2)c(C#Cc2ccc(F)cc2)c1	3.66 µM	> 64.1 µM	< 0.01 µM	> 100 µM	< 0.0113 µM	< 0.01 µM	> 100 µM	< 0.01 µM	46.1 µM	18.9 µM	> 100 µM	0.369 µM	60.9 µM	12.7 µM	87 µM	9.54 µM
